Data from patent publication US8227408B2, “Leptin as an anti-amyloidogenic biologic and methods for delaying the onset and reducing Alzheimer's disease-like pathology” (Neurotez, Inc., priority 2005, dated 2012).

Key:
β-secretase = assay: C99/C83 accumulation in SY5Y cells in presence of γ-secretase inhibitors (Western blot); type: cell-based, human; conditions: 5 h, with L-685,458 (100 nM) or Z-VL-CHO (100 μM); 10 μM cholesterol or 400 ng/ml leptin alone
[1] = system: Neuro2a cells stably transfected with hyg-sa134 (SEAP-APP); assay: Aβ production by Neuro2a cells stably transfected with hyg-sa134 (total Aβ in media, sandwich ELISA); type: cell-based, mouse; conditions: 5 h; about 400 ng/ml leptin alone or 10 μM water-soluble cholesterol alone; FIG. 4b
astrocytes = assay: Leptin immunostaining of astrocytes treated with cholesterol; type: cell-based, rat; conditions: astrocytes, 0, 5 or 10 μM cholesterol, 5 h
Description: (§1) Leptin was detected using a rabbit polyclonal antibody raised against mouse leptin, corss-reacting with human leptin (obtained from Dr. A. F. Parlow, Harbor-UCLA, CA). Immunofluorescent confocal microscopy was performed on 2% paraformaldehyde-fixed primary neural cells. Filipin staining was performed as described (Feng et al., Nat Cell Biol. 5:781-92 (2003)).
(§2) Neural cultures from ε15 rat cerebral cortex were processed for enrichment of neurons (a-d) or astrocytes (e-h) as described (Takeshima et al., J. Neurosci. Methods 67: 27-41 (1996)). After about 7 days to about 10 days in culture, cultures were treated for about 5 h with about 10 μg/ml cholesterol (b, f) or about 400 ng/ml leptin plus cholesterol (c, g) or leptin alone (d, h). Controls (a, e) were treated with culture media alone. Filipin staining was performed as described (Feng et al., Nat. Cell Biol. 5: 781-92 (2003)). Neurons (i-k) and astrocytes (l-n) prepared as above were treated with 0 μM (i, l), 5 μM (j, m) or 10 μM cholesterol (k, n) for 5 h. Immunostaining was performed for leptin (A.F.Parlow, Harbor-UCLA, CA).

SY5Y cells = assay: 125I-Aβ uptake by SY5Y cells (apoE-dependent); type: cell-based, human
Description: Preparation of ApoE and binding with ^125I-Aβ. ApoE was isolated from the conditioned media of human embryonic kidney (HEK-293) cells stably-transfected with human apoE (having the ε3 allele or the ε4 allele) cDNA (Tezapsidis et al., FASEB J. 17:1322-1324 (2003)). These preparations, while usually poor in lipid, are fully functional for uptake experiments. ApoE then was pre-incubated with ^125I-Aβ overnight at 37° C. (Aβ/ApoE: 1/50 w/w) as described (Tezapsidis et al., FASEB J. 17:1322-1324 (2003)).
Aβ-uptake by SY5Y cells. Human ^125I-Aβ (iodinated at Tyr-10, Amersham Biosciences, IM 294) uptake was measured following addition of 0.1 nM ^125I-Aβ40 (SEQ ID NO: 4) to confluent SY5Y cells (60,000 cpm/ml) in the presence or absence of 100 ng/ml or 400 ng/ml leptin also included in a 24 h pre-incubation period. ^125I-Aβ was either added alone or was previously incubated with apoε3. In controls, Receptor Associated Protein (“RAP”, 1 μM) was added together with Aβ or the Aβ/apoE complex. RAP is an antagonist of a number of lipoprotein receptors (LaDu et al., Neurochem Int. 39:427-34 (2001)). After 24 h, the media were collected and subjected to scintillation counting for γ-Iradiation (Kang et al., 2000. J Clin Invest. 106:1159-66 (2000)). The amount of radioactivity was measured in both the trichloroacetic acid (10%) TCA pellets (representing intact Aβ) and the corresponding supernatants (representing degraded Aβ). 96.5±8.2% (mean±s.e.m., n=4 experiments, triplicate determinations) of the radioactivity found in the medium could be recovered in the TCA pellet and represented intact or oligomeric Aβ (not shown), when Aβ was pre-incubated with apoE.
The amount of TCA-precipitable radioactivity in the soluble fraction of cell lysates was compared to that in the total lysates, the ratio of which was typically about 0.8 to about 0.9 (not shown), to further verify that radioactivity was reduced in the media as a reflection of Aβ uptake by the cells, rather than due to non-specific binding to the extracellular surface of membranes or oligomerization/aggregation of Aβ.
In panel (a), Aβ uptake was measured in SY5Y cells following their treatment at 0 ng/ml, 100 ng/ml or 400 ng/ml leptin. Uptake also was measured in cells previously transfected with antisense DNA for PS1 as described (Tezapsidis et al., FASEB J. 17:1322-1324(2003)) (black). Uptake is expressed as the percentage of that observed with Aβ pre-incubated with apoε3 (medium gray) in the absence of leptin (first set of columns). […] Leptin induced a dose-dependent increase in Aβ uptake with a preference for apoε3 (medium gray) over apoε4 (light gray). In panel (b), SY5Y cells were pre-treated with […] cholesterol (+Chol) or normal medium (−Chol). Then Aβ uptake was measured following its preincubation with apoε3 (ε3) or apoε4 (ε4) in the absence (black) or the presence (gray) of about 400 ng/ml leptin. Cells were more resistant to taking-up Aβ when loaded with cholesterol. […] In panel (c), SY5Y cells were transiently transfected with SREBP-1 or SREBP-2 cDNA or an empty vector (Control). Then Aβ was measured in the medium by ELISAs (Figueiredo-Pereira et al., J Neurochem. 72:1417-22 (1999)) following treatment with (+) or without (−) leptin. […] In panel (d), Aβ uptake was measured in SY5Y cells prepared as in panel (c). Uptake was performed using Aβ/apoε3 complexes.

neurons = assay: Leptin immunostaining of neurons treated with cholesterol; type: cell-based, rat; conditions: neurons, 0, 5 or 10 μM cholesterol, 5 h
Description: as §1, §2

[2] = system: transfected Neuro2a cells; assay: 125I-Aβ degradation and tracer uptake in culture media during treatments; type: cell-based, mouse; conditions: 1 mM 1,10-phenanthroline
Text: Leptin was almost as efficient as methyl-β-cyclodextrin in lowering Aβ (FIG. 4a, 4b).

Compound	C99 level (β-secretase)	levels of Aβ detected in the media (percentage of corresponding controls) [1] [%]	levels of leptin-like immunoreactivity (astrocytes)	apoε3-Aβ taken up compared to controls (SY5Y cells; SY5Y cells preloaded with cholesterol/CDX, without leptin, FIG. 5b) [%]	levels of leptin-like immunoreactivity (neurons)	Aβ degradation during the uptake (SY5Y cells; absence of apoE)	tracer's uptake by the cells [2]
CC(C)CCC[C@@H](C)[C@H]1CC[C@H]2[C@@H]3CC=C4C[C@@H](O)CC[C@]4(C)[C@H]3CC[C@]12C [cholesterol]	increase in C99	205±6	enhanced	22±6	enhanced		
c1cnc2c(c1)ccc1cccnc12 [1,10-phenanthroline]						abolished Aβ degradation	did not cause any significant difference
